# In patent US20260035363A1, “COMPOUNDS AND METHODS OF USE THEREOF AS ANTIBACTERIAL AGENTS” (priority 2019, published 2026):
# Where two headings read alike, the source gives them in different places.
# Tests used:
# Format in all cases: cell-based
# [1] = tested on: Mycobacterium tuberculosis (Mtb-GFP; H37Rv pMSP12::GFP); assay: microbe, parasite or virus in culture; conditions: 168 h, pH 6.8, read-out: Mtb Glu MITC95, glucose carbon source, pH 6.8, 7-day growth, GFP fluorescence, lowest concentration inhibiting 95% of growth
# [2] = tested on: Mycobacterium tuberculosis (Mtb-GFP; H37Rv pMSP12::GFP); assay: microbe, parasite or virus in culture; conditions: 168 h, pH 6.8, read-out: Mtb Cho MITC95, cholesterol carbon source, pH 6.8, 7-day growth, GFP fluorescence, lowest concentration inhibiting 95% of growth
# [3] = tested on: mitochondrial protein synthesis in HepG2 cells; assay: Mitochondrial protein synthesis assay (COX-I to SDH-A ratio, In Cell ELISA); conditions: 4 days, ratio of COX-I to SDH-A levels, read-out: MPS IC50
# Protocol: Mitochondrial Protein Synthesis Assay
# Inhibition of mitochondrial protein synthesis was assessed in HepG2 cells by comparing the levels of two subunits of oxidative phosphorylation enzyme complexes, subunit I of Complex IV (COX-I) and the 70 kDa subunit of Complex II (SDH-A). COX-I is mitochondrial DNA encoded and SDH-A is nuclear DNA encoded. HepG2 cells were seeded in 96-well collagen coated plates at 8,000 cells per well and exposed to 2-fold serial dilutions of compounds from 100 μM to 6.25 μM. Microtiter plates were incubated for approximately 5 replication cycles (4 days) prior to assessment of protein levels using a kit as described by the manufacturer (ab110217 MitoBiogenesis In Cell ELISA Kit, Abcam, Cambridge, MA). Inhibition of mitochondrial protein synthesis was expressed as a ratio of COX-1 to SDH-A levels.
SMILES,MIC [1] [µM],MIC [2] [µM],"IC50 ([3]; Homo sapiens, HepG2, 96 h) [µM]",IC50 [3] [µM]
"Fc1cc(C2=NO[C@@H](Cn3ccnn3)C2)ccc1-c1ccn2c(C3CNC3)nnc2c1 [Example 37, 3-(Azetidin-3-yl)-7-(2-fluoro-4-{(5R)-5-[(1H-1,2,3-triazol-1-yl)methyl]-4,5-dihydro-1,2-oxazol-3-yl}phenyl)[1,2,4]triazolo[4,3-a]pyridine]",0.78,1.56,65,–
"N=S1(=O)CCC(F)(c2c(F)cc(C3=NO[C@@H](Cn4ccnn4)C3)cc2F)CC1 (stereo partly drawn) [Example 38, 4-(2,6-Difluoro-4-{(5R)-5-[(1H-1,2,3-triazol-1-yl)methyl]-4,5-dihydro-1,2-oxazol-3-yl}phenyl)-4-fluoro-1-imino-1λ^6-thian-1-one]",0.78,1.56,–,44
"O=S1(=O)CCC(F)(c2c(F)cc(C3=NO[C@@H](Cn4cc(CO)nn4)C3)cc2F)CC1 [Example 40, 4-{2,6-Difluoro-4-[(5R)-5-{[4-(hydroxymethyl)-1H-1,2,3-triazol-1-yl]methyl}-4,5-dihydro-1,2-oxazol-3-yl]phenyl}-4-fluoro-1λ^6-thiane-1,1-dione]",1.56,1.56,> 100,–
"CN1CC(S(=O)(=O)c2ccc(-c3c(F)cc(C4=NO[C@@H](CO)C4)cc3F)cc2)C1 [Example 41, {(5R)-3-[2,6-Difluoro-4′-(1-methylazetidine-3-sulfonyl)[1,1′-biphenyl]-4-yl]-4,5-dihydro-1,2-oxazol-5-yl}methanol]",1.56,2.34,> 100,–
"CCC1(S(=O)(=O)c2ccc(-c3ccc(C4=NO[C@@H](Cn5ccnn5)C4)cc3F)cc2)CN(C)C1 [Example 43, 1-({(5R)-3-[4′-(3-Ethyl-1-methylazetidine-3-sulfonyl)-2-fluoro[1,1′-biphenyl]-4-yl]-4,5-dihydro-1,2-oxazol-5-yl}methyl)-1H-1,2,3-triazole]",0.19,0.19,4.1,–
"CN1CC(F)(S(=O)(=O)c2ccc(-c3ccc(C4=NO[C@@H](Cn5ccnn5)C4)cc3F)cc2)C1 [Example 44, l-({(5R)-3-[2-Fluoro-4′-(3-fluoro-1-methylazetidine-3-sulfonyl)[1,1′-biphenyl]-4-yl]-4,5-dihydro-1,2-oxazol-5-yl}methyl)-1H-1,2,3-triazole]",0.09,0.12,1.4,–
"CN1CCC(C)(S(=O)(=O)c2ccc(-c3ccc(C4=NO[C@@H](Cn5ccnn5)C4)cc3F)cc2)C1 (stereo partly drawn) [Example 45, l-({(5R)-3-[4′-(1,3-Dimethylpyrrolidine-3-sulfonyl)-2-fluoro[1,1′-biphenyl]-4-yl]-4,5-dihydro-1,2-oxazol-5-yl}methyl)-1H-1,2,3-triazole]",0.19,0.39,4,–
"O=S1(=O)CCC(F)(c2c(F)cc(C3=NO[C@@H](CO)C3)cc2F)CC1 [Example 47, 4-{2,6-Difluoro-4-[(5R)-5-(hydroxymethyl)-4,5-dihydro-1,2-oxazol-3-yl]phenyl}-4-fluoro-1λ^6-thiane-1,1-dione]",6.25,6.25,> 100,–
"O=S1(=O)CCC(F)(c2ccc(C3=NO[C@@H](Cn4ccnn4)C3)cc2F)CC1 [Example 48, 4-Fluoro-4-(2-fluoro-4-{(5R)-5-[(1H-1,2,3-triazol-1-yl)methyl]-4,5-dihydro-1,2-oxazol-3-yl}phenyl)-1λ^6-thiane-1,1-dione]",6.25,6.25,> 100,–
"CN1CC(C)(S(=O)(=O)c2ccc(-c3ccc(C4=NO[C@@H](CNC(=O)C5CC5)C4)cc3F)cc2)C1 [Example 49, N-({(5R)-3-[4′-(1,3-Dimethylazetidine-3-sulfonyl)-2-fluoro[1,1′-biphenyl]-4-yl]-4,5-dihydro-1,2-oxazol-5-yl}methyl) cyclopropanecarboxamide]",0.15,0.17,51,–
"O=C(NC[C@H]1CC(c2cc(F)c(C3(F)CCS(=O)(=O)CC3)c(F)c2)=NO1)OC1CC1 [Example 50, Cyclopropyl({(5R)-3-[3,5-difluoro-4-(4-fluoro-1,1-dioxo-1λ^6-thian-4-yl)phenyl]-4,5-dihydro-1,2-oxazol-5-yl}methyl)carbamate]",3.12,3.12,> 100,–
"CN1CC(F)(c2nnc3cc(-c4ccc(C5=NO[C@@H](Cn6ccnn6)C5)cc4F)ccn23)C1 [Example 51, 3-(3-Fluoro-1-methylazetidin-3-yl)-7-(2-fluoro-4-{(5R)-5-[(1H-1,2,3-triazol-1-yl)methyl]-4,5-dihydro-1,2-oxazol-3-yl}phenyl)[1,2,4]triazolo [4.3-a]pyridine]",0.09,0.09,1.4,–
"Fc1cc(C2=NO[C@@H](Cn3ccnn3)C2)ccc1-c1ccn2c(C3(F)CNC3)nnc2c1 [Example 52, 3-(3-Fluoroazetidin-3-yl)-7-(2-fluoro-4-{(5R)-5-[(1H-1,2,3-triazol-1-yl)methyl]-4,5-dihydro-1,2-oxazol-3-yl}phenyl)[1,2,4]triazolo [4.3-a]pyridine]",0.78,0.78,27,–
"CS(=O)(=O)NC[C@H]1CC(c2cc(F)c(C3(F)CCS(=O)(=O)CC3)c(F)c2)=NO1 [Example 53, N-({(5R)-3-[3,5-Difluoro-4-(4-fluoro-1,1-dioxo-1λ^6-thian-4-yl)phenyl]-4,5-dihydro-1,2-oxazol-5-yl}methyl) methanesulfonamide]",6.25,6.25,> 100,–
"Cc1cn(C[C@H]2CC(c3cc(F)c(C4(F)CCS(=O)(=O)CC4)c(F)c3)=NO2)nn1 [Example 54, 4-(2,6-Difluoro-4-{(5R)-5-[(4-methyl-1H-1,2,3-triazol-1-yl)methyl]-4,5-dihydro-1,2-oxazol-3-yl}phenyl)-4-fluoro-1λ^6-thiane-1,1-dione]",0.78,1.17,45,–
"CCOC(=O)NC[C@H]1CC(c2cc(F)c(C3(F)CCS(=O)(=O)CC3)c(F)c2)=NO1 [Example 55, Ethyl ({(5R)-3-[3,5-difluoro-4-(4-fluoro-1,1-dioxo-1λ^6-thian-4-yl)phenyl]-4,5-dihydro-1,2-oxazol-5-yl}methyl)carbamate]",3.12,3.12,> 100,–
"CN1CC(C)(S(=O)(=O)c2ccc(-c3ccc(C4=NO[C@@H](C(N)=O)C4)cc3F)cc2)C1 [Example 56, (5R)-3-[4′-(1,3-Dimethylazetidine-3-sulfonyl)-2-fluoro[1,1′-biphenyl]-4-yl]-4,5-dihydro-1,2-oxazole-5-carboxamide]",13,6.25,> 100,–
"CC(=O)NC[C@H]1CN(c2ccc(N3CCOCC3)c(F)c2)C(=O)O1 [linezolid, reference compound]",4.58,3.14,8,–
